Laboratory results taken from publication PMC2719696, “Kinetics and Cellular Site of Glycolipid Loading Control the Outcome of Natural Killer T Cell Activation” (Immunity, 2009).

Target: T1, hCD1d (Homo sapiens, UniProt P15813)
T1 construct: made in house
Assay: Loading of hCD1d tetramers with or without 0.05% Triton X-100, staining of hybridoma DN3A4.1-2
Format: binding
Description: The efficient loading of CD1 molecules with lipids such as αGalCer-C26:0 is known to involve cofactors that enhance the transfer of lipids from micelles or membranes into the antigen-binding groove of the CD1 protein. The best known of these cofactors are resident intracellular lipid binding and transfer proteins including those belonging to the saposin family, GM2 activator proteins, and Niemann-Pick type C1 and C2 proteins ([Zhou et al., 2004; Sagiv et al., 2006; Yuan et al., 2007; Schrantz et al., 2007]). Most of these are known to have detergent-like activities that facilitate solubilization of lipids and their exchange between hydrophobic binding sites. […]
Figure 5 Lack of Detergent-like Cofactor Dependence of Th2 Cell-Type Cytokine-Biasing αGalCer Analogs (A) Glycolipids were incubated for 24 hr at 37°C with murine CD1d proteins in the absence (top row) or presence (bottom row) of 0.05% Triton X-100. […] After washing, DN32.D3 iNKT hybridoma cells were added and supernatant concentrations of IL-2 were determined after an additional 14 hr of incubation. […]
Recombinant CD1d proteins were produced and assembled into tetramers for staining as previously described ([Forestier et al., 2007]). […] All samples were analyzed with the FACSCalibur flow cytometer (BD Biosciences).

T1 sequence (P15813 20-301 limits assumed): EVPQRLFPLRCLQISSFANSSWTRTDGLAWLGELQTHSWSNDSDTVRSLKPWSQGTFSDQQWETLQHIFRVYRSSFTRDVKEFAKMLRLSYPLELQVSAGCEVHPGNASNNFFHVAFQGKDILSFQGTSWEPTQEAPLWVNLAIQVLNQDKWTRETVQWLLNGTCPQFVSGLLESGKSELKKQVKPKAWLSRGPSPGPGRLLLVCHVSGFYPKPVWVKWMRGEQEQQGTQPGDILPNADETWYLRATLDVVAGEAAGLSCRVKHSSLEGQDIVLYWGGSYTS
T1 sequence (P61769 21-119 partner): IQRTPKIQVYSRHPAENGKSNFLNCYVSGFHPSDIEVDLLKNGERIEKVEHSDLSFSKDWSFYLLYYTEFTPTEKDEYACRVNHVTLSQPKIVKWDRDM

How did the “formation of hCD1d tetramers with iNKT cell-binding avidity” value turn out when `CCCCCCCCCCCCCCCCCCCCCCCC(=O)NC(COC1OC(CO)C(O)C(O)C1O)C(O)C(O)CCCCC` (stereo not shown) [OCH] was run?
The value was “failed to form hCD1d tetramers with iNKT cell-binding avidity under any conditions”.
